Laboratory results published in US20180291335A1, “MODIFIED POLYNUCLEOTIDES FOR ALTERING CELL PHENOTYPE” (ModernaTX, Inc., priority 2012, published 2018).

System: human embryonic kidney 293 (HEK293) cells
Test: Cytotoxicity of NTPs, CYTO TOX-GLO assay
Format: cell-based
Settings: human
Experimental: The cytotoxicity of natural and modified nucleoside triphosphates (NTPs) alone or in combination with other bases, was analyzed in human embryonic kidney 293 (HEK293) cells in the absence of transfection reagent. […] 10 ul of the NTPs outlined in Table 12 were combined with 10 ul of lipid dilution and incubated for 30 minutes to form a complex before 80 ul of the HEK293 cell suspension was added to the NTP complex.
Natural and modified NTPs were transfected at a concentration of 2.1 nM, 21 nM, 210 nM, 2.1 um, 21 uM, 210 um or 2.1 mM. NTPs in combination were transfected at a total concentration of NTPs of 8.4 nM, 84 nM, 840 nM, 8.4 uM, 84 uM, 840 uM and 8.4 mM. […] The cytotoxicity of the NTPs and the modified G-CSF mRNA was assayed at 4, 24, 48 and 72 hours post addition to the HEK293 cells using a CYTO TOX-GLO™ assay from Promega (Madison, Wis.) following the manufacturer protocol except pippeting was used for lysing the cells instead of shaking the plates.

Structure (SMILES) | percent of viable cells (4 h, 2.1 nM) | percent of viable cells (4 h, 21 nM) | percent of viable cells (4 h, 210 nM) | percent of viable cells (4 h, 2.1 uM) | percent of viable cells (4 h, 21 uM) | percent of viable cells (4 h, 210 uM) | percent of viable cells (4 h, 2.1 mM) | percent of viable cells (24 h, 2.1 nM) | percent of viable cells (24 h, 21 nM) | percent of viable cells (24 h, 210 nM) | percent of viable cells (24 h, 2.1 uM) | percent of viable cells (24 h, 21 uM) | percent of viable cells (24 h, 210 uM) | percent of viable cells (24 h, 2.1 mM) | percent of viable cells (48 h, 2.1 nM) | percent of viable cells (48 h, 21 nM) | percent of viable cells (48 h, 210 nM) | percent of viable cells (48 h, 2.1 uM) | percent of viable cells (48 h, 21 uM) | percent of viable cells (48 h, 210 uM) | other results
Cc1c[nH]c(=O)nc1N [5-methyl cytosine] | 92.23% | 91.40% | 92.31% | 91.31% | 91.16% | 91.54% | 92.01% | 86.35% | 86.37% | 84.71% | 85.14% | 84.72% | 85.76% | 87.97% | 88.18% | 87.10% | 86.44% | 86.18% | 85.74% | 85.94% | percent of viable cells (48 h, 2.1 mM): 87.29%; percent of viable cells (72 h, 2.1 nM): 91.93%; percent of viable cells (72 h, 21 nM): 92.10%; percent of viable cells (72 h, 210 nM): 89.97%; percent of viable cells (72 h, 2.1 uM): 90.92%; percent of viable cells (72 h, 21 uM): 92.26%; percent of viable cells (72 h, 210 uM): 88.10%; percent of viable cells (72 h, 2.1 mM): 96.08%
Cn1cc([C@@H]2O[C@H](CO)[C@@H](O)[C@H]2O)c(=O)[nH]c1=O [N1-methyl pseudouridine] | 91.89% | 91.44% | 92.15% | 90.41% | 91.48% | 91.43% | 92.45% | 87.79% | 86.85% | 85.89% | 85.72% | 85.17% | 86.48% | 88.92% | 87.81% | 86.72% | 87.38% | 85.85% | 87.52% | 86.02% | percent of viable cells (48 h, 2.1 mM): 89.84%; percent of viable cells (72 h, 2.1 nM): 92.98%; percent of viable cells (72 h, 21 nM): 92.84%; percent of viable cells (72 h, 210 nM): 92.40%; percent of viable cells (72 h, 2.1 uM): 92.25%; percent of viable cells (72 h, 21 uM): 93.83%; percent of viable cells (72 h, 210 uM): 93.03%; percent of viable cells (72 h, 2.1 mM): 96.80%
